Measured values reported in ChEMBL document CHEMBL4507319 (2021).

Columns and labels:
[1] = target: T1, Serine/threonine-protein kinase BRSK2 (Homo sapiens) (UniProt Q8IWQ3); assay: BrSK2(h) Eurofins kinase panel; details: Compound concentration 1.0 uM
T1 sequence (whole entry): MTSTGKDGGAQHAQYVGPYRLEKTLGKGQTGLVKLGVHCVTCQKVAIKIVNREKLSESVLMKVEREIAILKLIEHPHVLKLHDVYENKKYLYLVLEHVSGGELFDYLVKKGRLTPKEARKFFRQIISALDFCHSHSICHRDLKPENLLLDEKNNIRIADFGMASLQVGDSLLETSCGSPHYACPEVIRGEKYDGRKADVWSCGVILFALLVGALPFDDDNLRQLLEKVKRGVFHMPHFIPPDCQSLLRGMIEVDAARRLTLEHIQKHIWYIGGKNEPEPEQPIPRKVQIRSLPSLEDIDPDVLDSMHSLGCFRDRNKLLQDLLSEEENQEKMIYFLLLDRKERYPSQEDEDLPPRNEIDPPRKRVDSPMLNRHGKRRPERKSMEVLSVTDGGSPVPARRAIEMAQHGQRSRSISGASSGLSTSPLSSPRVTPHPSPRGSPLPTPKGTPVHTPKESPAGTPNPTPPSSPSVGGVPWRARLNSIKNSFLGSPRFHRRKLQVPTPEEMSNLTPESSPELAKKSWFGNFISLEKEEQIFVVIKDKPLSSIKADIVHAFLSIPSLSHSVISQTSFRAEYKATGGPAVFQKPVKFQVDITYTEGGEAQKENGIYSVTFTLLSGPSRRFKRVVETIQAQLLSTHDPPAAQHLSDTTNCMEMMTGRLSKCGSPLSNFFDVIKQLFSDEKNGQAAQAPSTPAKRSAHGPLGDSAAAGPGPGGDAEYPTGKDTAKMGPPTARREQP

[2] = target: Receptor tyrosine-protein kinase erbB-2 (Homo sapiens) (UniProt P04626); assay: ErbB2(h) Eurofins kinase panel; details: Compound concentration 1.0 uM
Sequence of Receptor tyrosine-protein kinase erbB-2 (Homo sapiens) (P04626 whole entry): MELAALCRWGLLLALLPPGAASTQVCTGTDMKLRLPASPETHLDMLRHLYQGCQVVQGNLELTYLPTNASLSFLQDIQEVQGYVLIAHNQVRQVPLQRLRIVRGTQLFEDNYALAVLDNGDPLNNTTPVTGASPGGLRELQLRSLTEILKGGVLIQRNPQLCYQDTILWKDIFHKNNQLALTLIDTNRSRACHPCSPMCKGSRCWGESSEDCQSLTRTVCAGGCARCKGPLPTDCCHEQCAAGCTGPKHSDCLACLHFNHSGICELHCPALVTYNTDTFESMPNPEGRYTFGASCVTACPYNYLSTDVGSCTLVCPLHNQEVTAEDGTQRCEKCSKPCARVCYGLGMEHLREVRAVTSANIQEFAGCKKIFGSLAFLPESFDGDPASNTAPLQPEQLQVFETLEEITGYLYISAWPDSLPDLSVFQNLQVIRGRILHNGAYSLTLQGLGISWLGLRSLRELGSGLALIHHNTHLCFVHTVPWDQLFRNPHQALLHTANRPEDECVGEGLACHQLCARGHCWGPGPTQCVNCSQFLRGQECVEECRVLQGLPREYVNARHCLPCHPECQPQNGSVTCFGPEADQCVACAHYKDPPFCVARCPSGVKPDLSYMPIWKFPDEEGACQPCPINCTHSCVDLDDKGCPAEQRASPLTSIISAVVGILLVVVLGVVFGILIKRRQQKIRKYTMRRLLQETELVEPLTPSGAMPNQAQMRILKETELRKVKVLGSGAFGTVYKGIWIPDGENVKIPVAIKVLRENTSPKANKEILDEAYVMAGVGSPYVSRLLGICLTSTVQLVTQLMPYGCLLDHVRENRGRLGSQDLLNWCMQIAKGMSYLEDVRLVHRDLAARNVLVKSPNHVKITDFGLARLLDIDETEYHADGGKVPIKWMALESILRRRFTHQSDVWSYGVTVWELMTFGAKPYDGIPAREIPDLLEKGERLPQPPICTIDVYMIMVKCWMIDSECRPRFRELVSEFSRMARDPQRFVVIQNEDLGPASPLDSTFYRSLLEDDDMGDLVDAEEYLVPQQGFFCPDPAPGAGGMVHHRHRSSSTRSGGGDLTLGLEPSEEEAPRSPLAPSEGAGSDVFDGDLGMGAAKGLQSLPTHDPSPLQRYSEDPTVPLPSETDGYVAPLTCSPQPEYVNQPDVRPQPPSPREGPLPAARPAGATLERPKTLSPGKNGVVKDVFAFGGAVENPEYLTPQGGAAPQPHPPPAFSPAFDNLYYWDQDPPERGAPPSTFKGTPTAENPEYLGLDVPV

[3] = target: T2, Mitogen-activated protein kinase kinase kinase kinase 3 (Homo sapiens) (UniProt Q8IVH8); assay: MAP4K3(h) Eurofins kinase panel; details: Compound concentration 1.0 uM
T2 sequence (whole entry): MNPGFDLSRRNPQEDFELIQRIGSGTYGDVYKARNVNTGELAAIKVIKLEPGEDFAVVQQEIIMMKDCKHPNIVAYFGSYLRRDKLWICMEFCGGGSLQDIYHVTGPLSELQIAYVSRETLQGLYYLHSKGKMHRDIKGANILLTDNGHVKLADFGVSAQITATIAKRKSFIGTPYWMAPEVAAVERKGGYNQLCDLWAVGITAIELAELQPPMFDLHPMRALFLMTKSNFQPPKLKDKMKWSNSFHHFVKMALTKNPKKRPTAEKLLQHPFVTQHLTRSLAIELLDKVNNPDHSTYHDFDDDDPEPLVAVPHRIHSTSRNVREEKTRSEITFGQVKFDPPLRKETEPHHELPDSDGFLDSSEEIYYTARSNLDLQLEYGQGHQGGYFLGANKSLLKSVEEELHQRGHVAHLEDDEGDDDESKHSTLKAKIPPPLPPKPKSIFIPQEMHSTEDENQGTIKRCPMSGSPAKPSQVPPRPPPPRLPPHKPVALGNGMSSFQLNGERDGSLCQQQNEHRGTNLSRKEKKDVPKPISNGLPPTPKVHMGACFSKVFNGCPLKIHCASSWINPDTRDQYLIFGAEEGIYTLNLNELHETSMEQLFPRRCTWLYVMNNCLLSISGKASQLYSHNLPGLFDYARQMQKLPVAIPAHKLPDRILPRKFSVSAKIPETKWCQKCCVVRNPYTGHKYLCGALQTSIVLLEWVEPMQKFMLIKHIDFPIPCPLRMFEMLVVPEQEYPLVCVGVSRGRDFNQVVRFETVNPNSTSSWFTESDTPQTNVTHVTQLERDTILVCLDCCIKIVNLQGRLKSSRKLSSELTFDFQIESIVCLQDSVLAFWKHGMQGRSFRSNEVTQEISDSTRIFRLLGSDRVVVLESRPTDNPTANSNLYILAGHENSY

[4] = target: T3, cGMP-dependent protein kinase 1 (Homo sapiens) (UniProt Q13976); assay: PKG1alpha (h) Eurofins kinase panel; details: Compound concentration 1.0 uM
T3 sequence (whole entry): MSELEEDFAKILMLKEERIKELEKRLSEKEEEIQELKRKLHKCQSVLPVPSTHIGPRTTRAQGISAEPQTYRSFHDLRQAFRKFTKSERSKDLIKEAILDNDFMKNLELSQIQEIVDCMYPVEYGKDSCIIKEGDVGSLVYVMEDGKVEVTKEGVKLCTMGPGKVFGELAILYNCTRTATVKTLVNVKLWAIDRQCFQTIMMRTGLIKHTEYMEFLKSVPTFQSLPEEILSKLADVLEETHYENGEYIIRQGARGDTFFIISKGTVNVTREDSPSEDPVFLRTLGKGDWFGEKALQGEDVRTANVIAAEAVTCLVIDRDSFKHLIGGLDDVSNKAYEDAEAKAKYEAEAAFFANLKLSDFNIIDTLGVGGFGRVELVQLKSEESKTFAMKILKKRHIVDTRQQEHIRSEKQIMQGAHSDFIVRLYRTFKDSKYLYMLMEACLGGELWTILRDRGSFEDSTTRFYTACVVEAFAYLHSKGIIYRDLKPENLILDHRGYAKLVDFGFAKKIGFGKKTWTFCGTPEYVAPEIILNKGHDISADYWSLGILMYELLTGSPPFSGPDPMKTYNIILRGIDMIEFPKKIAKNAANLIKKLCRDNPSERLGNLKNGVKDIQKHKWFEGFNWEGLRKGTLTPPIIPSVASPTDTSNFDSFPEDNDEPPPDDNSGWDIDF

[5] = target: Wee1-like protein kinase 2 (Homo sapiens) (UniProt P0C1S8); assay: Wee1B(h) Eurofins kinase panel; details: Compound concentration 1.0 uM
Sequence of Wee1-like protein kinase 2 (Homo sapiens) (P0C1S8 whole entry, looked up): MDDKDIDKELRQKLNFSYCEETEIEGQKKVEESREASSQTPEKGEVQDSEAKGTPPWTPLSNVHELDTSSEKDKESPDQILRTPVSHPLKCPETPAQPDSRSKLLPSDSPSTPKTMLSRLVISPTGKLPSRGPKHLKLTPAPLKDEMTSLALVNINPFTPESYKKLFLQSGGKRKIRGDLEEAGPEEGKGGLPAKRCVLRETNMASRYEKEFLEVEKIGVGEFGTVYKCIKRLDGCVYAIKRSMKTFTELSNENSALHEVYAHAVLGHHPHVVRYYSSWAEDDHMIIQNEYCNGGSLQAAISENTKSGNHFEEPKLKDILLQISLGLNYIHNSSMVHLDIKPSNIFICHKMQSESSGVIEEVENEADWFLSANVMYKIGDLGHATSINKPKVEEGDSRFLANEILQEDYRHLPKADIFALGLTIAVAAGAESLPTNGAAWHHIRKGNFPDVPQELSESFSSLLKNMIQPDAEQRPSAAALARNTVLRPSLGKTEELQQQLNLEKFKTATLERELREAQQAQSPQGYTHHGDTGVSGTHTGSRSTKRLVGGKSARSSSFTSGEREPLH

OCI-Ly7 = assay: Oci-Ly-7 cell line Proliferation assay; assay type: functional, Homo sapiens; details: time 3 day
LNCaP C4-2B = assay: C4-2B cell line Proliferation assay; assay type: functional, Homo sapiens; details: time 6 day

Q: How did the % residual kinase activity [1] turn out when `CCc1ccccc1C(=O)Nc1n[nH]c2c(C)c(F)c(C3C(C#N)=C(C)N(C)C(C)=C3C#N)cc12` [BAY-3827] was run?
A: 34%

Q: And the % residual kinase activity [2]?
A: 95%

Q: What about the % residual kinase activity [3] of the same compound?
A: 78%

Q: What about the % residual kinase activity [4] of the same compound?
A: 68%

Q: And the % residual kinase activity [5]?
A: 101%

Q: What about the “Cell Proliferation IC50” value (OCI-Ly7) of the same compound?
A: 12.2 µM

Q: What about the “Cell Proliferation IC50” value (LNCaP C4-2B) of the same compound?
A: >10 µM
